EC50 and inhibition data for 13 compounds are collected here from patent publication US10285983B2, “3-(1H-pyrrolo[2,3-B]pyridin-2-yl)-1H-pyrazolo[3,4-B] pyridines and therapeutic uses thereof” (Samumed, LLC, priority 2015, dated 2019).

pEC50: −log10 of the molar value. A value given as a limit tells only on which side of the number the result lay.

By pEC50 is commonly meant −log10 of the EC50, conventionally taken in molar units. The low end stands for a large EC50, the high end for a small EC50. Broadly, the inhibition is the relative decrease from the control value, in per cent.

Holding throughout (format): cell-based
In assay [1] the test system is primary human fibroblasts derived from IPF patients (LL29 cells). Kind of assay: Inhibition of fibrotic process, αSMA staining in TGF-β1 treated LL29 fibroblasts. As to conditions: Fibroblast, 96 h, TGF-β1 20 ng/mL, 4 days; for pEC50: % αSMA positive cells; for inhibition at 10 µM: given for EC50 >10 μM, read-out: percent inhibition at 10 μM. In a few lines:
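IPF-patient LL29 lung fibroblasts in 1% FBS medium received compound (11-point, 1:2 dilution, 0.1% DMSO) plus TGF-β1 20 ng/mL, 4 days at 37 °C. Percent αSMA-positive cells among SYTOX-negative cells quantified by immunofluorescence imaging, normalized to TGF-β1/DMSO wells. EC50 by non-linear regression on triplicates; above 10 μM, % inhibition at 10 μM given.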

Assay [2] concerns IL-6 (THP-1 human monocyte cell line). The assay is described as follows: IL-6 inhibition in LPS-stimulated THP-1 cells (HTRF). As to conditions: LPS 500 ng/mL; for pEC50: 22 hours, IL6 HTRF; for inhibition at 10 µM: given for EC50 >10 μM, read-out: percent inhibition at 10 μM. Summed up:
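THP-1 cells, serum-reduced to 1% FBS for 24 h, preincubated 2 h at 37° C with compound (10-point, 1:3 series, 0.1% DMSO), then stimulated with 500 ng/mL LPS for 22 h. IL-6 quantified by HTRF 665/620 nm ratio, normalized to DMSO; EC50 by four-parameter fit, else percent inhibition at 10 μM.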
(Time-resolved FRET reads energy transfer from a long-lived donor to a nearby acceptor.)

Another assay deals with SW480 colon cancer cells. The assay is described as follows: Cell viability assay (CellTiter-Blue). Conditions: Homo sapiens, 96 h, four days; for inhibition at 10 µM: given for EC50 >10 μM, read-out: percent inhibition at 10 μM. Summed up:
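Approximately 2×10^3 SW480 cells per well are seeded with compound (8 points, threefold steps, top 10 μM) and incubated four days at 37 °C. CellTiter-Blue is then added for about 3 h and fluorescence read. Non-linear regression gives EC50; for values beyond 10 μM, percent inhibition at that concentration is listed.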

Regarding `O=C(Nc1cncc(-c2cnc3[nH]nc(-c4cc5c(-c6ccncc6)ccnc5[nH]4)c3c2)c1)C1CCCCC1` [Compound 135, N-(5-(3-(4-(Pyridin-4-yl)-1H-pyrrolo[2,3-b]pyridin-2-yl)-1H-pyrazolo[3,4-b]pyridin-5-yl)pyridin-3-yl)cyclohexanecarboxamide], the pEC50 (in assay [1]; in assay [2]; in the assay with SW480 colon cancer cells) was less than 5.00 in each case. Also, the figures for the inhibition at 10 µM (in assay [1]; in assay [2]; with SW480 colon cancer cells) were 19.8%, 37.7% and 13.9%, respectively.
For `c1cncc(-c2cnc3[nH]nc(-c4cc5c(-c6cccnc6)ccnc5[nH]4)c3c2)c1` [Compound 88, 5-(Pyridin-3-yl)-3-(4-(pyridin-3-yl)-1H-pyrrolo[2,3-b]pyridin-2-yl)-1H-pyrazolo[3,4-b]pyridine], the pEC50 (in assay [1]; in assay [2]; in the assay with SW480 colon cancer cells) was less than 5.00 in each case. The inhibition at 10 µM in assay [1] was 0%; in assay [2] it was 22.6%; with SW480 colon cancer cells, 10.8%.
`Cc1ccncc1-c1cnc2[nH]nc(-c3cc4c(-c5ccc(F)cc5)ccnc4[nH]3)c2c1` [Compound 33, 3-(4-(4-Fluorophenyl)-1H-pyrrolo[2,3-b]pyridin-2-yl)-5-(4-methylpyridin-3-yl)-1H-pyrazolo[3,4-b]pyridine]: the results for the pEC50 (in assay [1]; in assay [2]; in the assay on SW480 colon cancer cells) were 5.35, less than 5.00 and less than 5.00, respectively. Also, the inhibition at 10 µM in assay [2] was 27.7%; in the assay with SW480 colon cancer cells, 25%.
Regarding `CCNCc1cncc(-c2cnc3[nH]nc(-c4cc5c(-c6ccccc6F)ccnc5[nH]4)c3c2)c1` [Compound 62, N-((5-(3-(4-(2-Fluorophenyl)-1H-pyrrolo[2,3-b]pyridin-2-yl)-1H-pyrazolo [3,4-b]pyridin-5-yl)pyridin-3-yl)methyl)ethanamine], the pEC50 (in assay [1]; in assay [2]; with SW480 colon cancer cells) was less than 5.00 throughout. The values for the inhibition at 10 µM (in assay [1]; in assay [2]; in the assay with SW480 colon cancer cells) were 0%, 13.3% and 38.2%, respectively.
As for `CC(C)(C)CC(=O)Nc1cncc(-c2cnc3[nH]nc(-c4cc5cccnc5[nH]4)c3c2)c1` [Compound 268, N-(5-(3-(1H-Pyrrolo[2,3-b]pyridin-2-yl)-1H-pyrazolo[3,4-b]pyridin-5-yl)pyridin-3-yl)-3,3-dimethylbutanamide], the pEC50 was 6.38 in assay [1], 6.44 in assay [2] and 5.70 in the assay with SW480 colon cancer cells.
As for `CN(C)Cc1cncc(-c2cnc3[nH]nc(-c4cc5c(-c6cccnc6)ccnc5[nH]4)c3c2)c1` [Compound 97, N,N-Dimethyl-1-(5-(3-(4-(pyridin-3-yl)-1H-pyrrolo[2,3-b]pyridin-2-yl)-1H-pyrazolo[3,4-b]pyridin-5-yl)pyridin-3-yl)methanamine], the pEC50 (in assay [1]; in assay [2]; in the assay with SW480 colon cancer cells) was less than 5.00 in each case. The figures for the inhibition at 10 µM (in assay [1]; in assay [2]; in the assay on SW480 colon cancer cells) were 0%, 38.5% and 19.6%, respectively.
For the compound `CN(C)CCNc1cc(F)cc(-c2ccnc3[nH]c(-c4n[nH]c5ncc(-c6cncc(NC(=O)C7CCC7)c6)cc45)cc23)c1` [Compound 469, N-(5-(3-(4-(3-((2-(Dimethylamino)ethyl)amino)-5-fluorophenyl)-1H-pyrrolo [2,3-b]pyridin-2-yl)-1H-pyrazolo[3,4-b]pyridin-5-yl)pyridin-3-yl)cyclobutanecarboxamide], the pEC50 in assay [1] was less than 5.00; in assay [2], 6.65; in the assay on SW480 colon cancer cells it was less than 5.00. For the same compound, the inhibition at 10 µM (in assay [1]; in the assay with SW480 colon cancer cells) was 0% throughout.
For the compound `O=C(Nc1cncc(-c2cnc3[nH]nc(-c4cc5cccnc5[nH]4)c3c2)c1)c1ccccc1` [Compound 263, N-(5-(3-(1H-Pyrrolo[2,3-b]pyridin-2-yl)-1H-pyrazolo[3,4-b]pyridin-5-yl)pyridin-3-yl)benzamide], the pEC50 in assay [1] was 6.44; in assay [2], 6.51; in the assay on SW480 colon cancer cells, less than 5.00. For the same compound, in the assay with SW480 colon cancer cells, the inhibition at 10 µM amounted to 21.1%.
Consider `c1ccc(-c2cnc3[nH]nc(-c4cc5c(-c6ccncc6)ccnc5[nH]4)c3c2)nc1` [Compound 140, 5-(Pyridin-2-yl)-3-(4-(pyridin-4-yl)-1H-pyrrolo[2,3-b]pyridin-2-yl)-1H-pyrazolo[3,4-b]pyridine], for which the pEC50 (in assay [1]; in assay [2]; in the assay on SW480 colon cancer cells) was less than 5.00 throughout. Further, the inhibition at 10 µM in assay [1] turned out to be 24.5%; in assay [2], 24.5%; with SW480 colon cancer cells, 20.2%.
Take `CCCC(=O)Nc1cncc(-c2cnc3[nH]nc(-c4cc5c(N6CCCCC6)ccnc5[nH]4)c3c2)c1` [Compound 185, N-(5-(3-(4-(Piperidin-1-yl)-1H-pyrrolo[2,3-b]pyridin-2-yl)-1H-pyrazolo[3,4-b]pyridin-5-yl)pyridin-3-yl)butyramide]: the pEC50 (in assay [1]; in assay [2]; in the assay with SW480 colon cancer cells) was less than 5.00 throughout. For the same compound, the inhibition at 10 µM in assay [1] is 0%; in assay [2], 41.2%; with SW480 colon cancer cells, 4.9%.
On to `O=C(Nc1cncc(-c2cnc3[nH]nc(-c4cc5c(-c6ccc(F)cc6)ccnc5[nH]4)c3c2)c1)C1CCCCC1` [Compound 51, N-(5-(3-(4-(4-Fluorophenyl)-1H-pyrrolo[2,3-b]pyridin-2-yl)-1H-pyrazolo [3,4-b]pyridin-5-yl)pyridin-3-yl)cyclohexanecarboxamide], for which the pEC50 (in assay [1]; in assay [2]; in the assay with SW480 colon cancer cells) was less than 5.00 each time. The values for the inhibition at 10 µM (in assay [1]; in assay [2]; with SW480 colon cancer cells) were 1.3%, 19.4% and 17.7%, respectively.
Consider `Fc1cccc(-c2ccnc3[nH]c(-c4n[nH]c5ncc(-c6ccncc6)cc45)cc23)c1` [Compound 18, 3-(4-(3-Fluorophenyl)-1H-pyrrolo[2,3-b]pyridin-2-yl)-5-(pyridin-4-yl)-1H-pyrazolo[3,4-b]pyridine], for which the pEC50 in assay [1] was 5.84; in assay [2] it was less than 5.00; with SW480 colon cancer cells, less than 5.00. Also, the figures for the inhibition at 10 µM (in assay [2]; in the assay on SW480 colon cancer cells) were 37.2% and 23.2%, respectively.
For the compound `CN1CCN(c2ccnc3[nH]c(-c4n[nH]c5ncc(-c6cn[nH]c6)cc45)cc23)CC1` [Compound 635, 3-(4-(4-Methylpiperazin-1-yl)-1H-pyrrolo[2,3-b]pyridin-2-yl)-5-(1H-pyrazol-4-yl)-1H-pyrazolo[3,4-b]pyridine], the pEC50 (in assay [1]; in assay [2]; with SW480 colon cancer cells) was less than 5.00 in each case. In addition, the inhibition at 10 µM in assay [1] stood at 26%; in assay [2], 21.4%; with SW480 colon cancer cells, 3.6%.
